From patent US20190298666A1, “PROMOTION OF T LYMPHOCYTE PROLIFERATION” (Regents of the University of Minnesota, priority 2018, published 2019)

Columns and labels:
CYP3A4 [1] = molecular target: T1, CYP3A4 (Homo sapiens, UniProt P08684); conditions: cited from earlier work
[2] = system: breast cancer cell lines and established mouse mammary tumors; conditions: cited from earlier work
[3] = system: CD4+ and CD8+ T lymphocytes; experiment: T cell growth/proliferation, mouse splenocytes with anti-CD3 and anti-CD28 antibodies, flow cytometry; assay type: cell-based, C57BL/6J mouse
Method: (§1) FIGS. 1A-B. Freshly harvested C57BL/6 splenocytes were seeded at 80,000 cells/well in a 96-well plate coated with anti-mouse CD3 (10 ug/ml) and anti-mouse CD28 (1 ug/ml) antibodies. After 24 hour incubation with HBB (0-50 uM), cells were then labeled with anti-mouse CD4-eFlour450, anti-mouse CD8 FITC and anti-mouse Thy1.2 APC-eFluor780 antibodies and analyzed by a flowcytometer. Thy1.2 positive single lymphocytes were gated as T cells and CD4 positive and CD8 positive cells were counted. FIG. 1A. Results are expressed as mean±S.D. (n=6). FIG. 1B. MCF-7 breast cancer cells were incubated in the same concentration range of HBB, also for 24 hours. MTT assay of cell numbers.
(§2) FIG. 4. Freshly harvested C57BL/6 splenocytes were seeded at 80,000 cells/well in a 96-well plate coated with anti-mouse CD3 (10 ug/ml) and anti-mouse CD28 (1 ug/ml) antibodies. After 24 hour incubation with metformin (0-10 mM), cells were then labeled with anti-mouse CD4-eFlour450, anti-mouse CD8 FITC and anti-mouse Thy1.2 APC-eFluor780 antibodies and analyzed by a flowcytometer. Thy1.2 positive single lymphocytes were gated as T cells and CD4 positive and CD8 positive cells were counted.
(§3) HBB effects on T cell growth were tested across a range of concentrations (0 to 50 uM). C57BL/6J mouse splenocytes were incubated with or without biguanides in the presence of anti-mouse CD3 and anti-mouse CD28 antibodies. After 24 hours, cells were labeled with fluorescently tagged antibodies to mouse Thy-1, CD4, CD8, CD25, CD44, CD62L and CD73 surface antigens and T cell subsets were analyzed by flow cytometry.

CD8+ T lymphocytes = experiment: T cell proliferation, mouse splenocytes with anti-CD3 and anti-CD28 antibodies, flow cytometry; assay type: cell-based, C57BL/6J mouse
Method: as §1, §2, §3

CD4+ T lymphocytes = experiment: as above; assay type: cell-based, C57BL/6J mouse
Method: as §1, §2, §3

CYP3A4 [4] = molecular target: T1, CYP3A4; conditions: compared with metformin; cited from earlier work
[5] = system: Naive, non-Treg CD4 T cells; experiment: iTreg differentiation; assay type: cell-based; conditions: IL2 and TGFb, 3 days
Method: Naive, non-Treg CD4 T cells were first isolated (these are isolated by magnetic depletion on CD8, CD11b, CD11c, CD19, CD24, CD25, CD44, CD49b, CD105, MHC-II, Gr1, Ter119, B220, TCRg/d). These cells were stimulated with plate bound anti-CD3/CD28 (plates were coated with 5 ug/mL for 2 hours at 37° C.) and given 100 U/mL IL2, 5 ng/mL TGFb and an additional 1 ug/mL anti-Cd28 in cRPMI. After 3 days the cells were stained for CD4, CD8 and CD25 with FOXP3 being on the GFP reporter. Tregs are defined here as CD25+FOXP3+. For this assay, 300,000 cells were plated per well in a 24 well plate.

[6] = system: CD4+CD25+FOXP3- progenitor cells; experiment: TRP conversion assay (IL2-dependent conversion into Tregs); assay type: cell-based; conditions: 1 U/mL IL2, 3 days
Text: (§4) Each TRP (CD4+CD25+FOXP3- or CD4+CD25−FOXP3+) population was isolated by FACS and stimulated with 1 U/mL IL2 (in complete RPMI) for 3 days then analyzed for upregulation of CD25 and FOXP3 (by GFP reporter).

[7] = system: CD4+CD25−FOXP3+ progenitor cells; experiment: as above; assay type: cell-based; conditions: 1 U/mL IL2, 3 days
Text: as §4

[8] = system: MCF-7 breast cancer cells; experiment: MTT assay of cell numbers, MCF-7; assay type: cell-based; conditions: 0-50 uM, 24 hours, concentrations that induce CD4 and CD8 T cell growth
Method: as §1

[9] = rodents; cited from earlier work

T1 sequence (P08684 whole entry): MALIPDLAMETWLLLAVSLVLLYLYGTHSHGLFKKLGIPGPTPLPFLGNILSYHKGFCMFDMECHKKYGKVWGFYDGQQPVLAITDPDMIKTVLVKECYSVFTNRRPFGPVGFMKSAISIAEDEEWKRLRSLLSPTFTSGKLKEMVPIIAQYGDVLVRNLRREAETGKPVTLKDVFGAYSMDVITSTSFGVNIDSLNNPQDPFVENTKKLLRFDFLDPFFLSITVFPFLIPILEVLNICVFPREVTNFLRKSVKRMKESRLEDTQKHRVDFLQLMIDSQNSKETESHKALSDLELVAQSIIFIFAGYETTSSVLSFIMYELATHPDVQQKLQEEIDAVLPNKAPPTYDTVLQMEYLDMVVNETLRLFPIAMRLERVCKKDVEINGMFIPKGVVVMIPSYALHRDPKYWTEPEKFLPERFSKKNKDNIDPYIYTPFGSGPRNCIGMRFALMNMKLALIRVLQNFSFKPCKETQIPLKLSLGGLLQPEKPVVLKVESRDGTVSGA

In the case of `CCCCCCNC(=N)NC(=N)NCc1ccccc1` [HBB, N1-hexyl-N5-benzyl biguanide], the “inhibition of CYP3A4 AA epoxygenase activity” value (CYP3A4 [1]) is listed as “potently and specifically inhibits”, the “concentration range of activity against breast cancer cells” value [2] is listed as roughly 20 µM and the IC50 ([2]; read-out: IC50, OCR and growth inhibition) is listed as 3 to 30 µM. For the same compound, the “greater potency for T cell effects relative to metformin” value [3] was 1000 fold, the “T cell growth at low concentrations” value ([3]; 0.09 to 1.5 uM, 24 hours) was “did not inhibit” and the “proliferation of CD8+ T lymphocytes” value (CD8+ T lymphocytes; 6 to 12 uM, P<0.05) was 1.6 fold. The “increase of CD8+ T cells” value (CD8+ T lymphocytes; 6 to 12 microM) was 60%, the “effectiveness for expansion of CD8+ T cells ex vivo relative to metformin” value (CD8+ T lymphocytes; at 1000-fold lower concentration than metformin) was 5 fold and the “proliferation of CD4+ T lymphocytes” value (CD4+ T lymphocytes; 6 to 12 uM, P<0.05) was 1.9 fold. The “increase of CD4+ T cells” value (CD4+ T lymphocytes; 6 to 12 microM) was 90%, the “effectiveness for expansion of CD4+ T cells ex vivo relative to metformin” value (CD4+ T lymphocytes; at 1000-fold lower concentration) was 3 fold and the “affinity for the CYP3A4 heme” value (CYP3A4 [4]) was “higher affinity than metformin”. The “FOXP3 and CD25 expression of the Treg cells generated” value [5] was “expressed less FOXP3 and CD25”, the “differentiation of naive T cells into Tregs” value [5] was “inhibits” and the “IL2-dependent conversion into Tregs” value [6] was “blocks”. For the same compound, the “IL2-dependent conversion into Tregs” value [7] was “blocks” and the “growth of MCF-7 breast cancer cells” value [8] was “inhibit growth”.

For `CN(C)C(=N)N=C(N)N` [metformin, reference compound], the “concentration range of activity against breast cancer cells” value [2] is given as roughly 5000 µM, the “proliferation-inducing activity for T cells” value ([3]; concentrations below 5 mM) is given as “failed to show proliferation-inducing activity” and the “concentrations causing an increase of CD4+ and CD8+ T lymphocytes” value ([3]; metformin, 24 hours, FIG. 4) is given as greater than 5 mM. For the same compound, the “increase of CD8+ T cells” value (CD8+ T lymphocytes; 10 mM) was 14%, the “increase of CD4+ T cells” value (CD4+ T lymphocytes; 10 mM) was 30% and the maximum tissue concentrations [9] was “about 500 microM”.
